Assay results published in publication PMC10013768, “The efficacy of anti‐proteolytic peptide R7I in intestinal inflammation, function, microbiota, and metabolites by multi‐omics analysis in murine bacterial enteritis” (Bioengineering & Translational Medicine, 2022).
≈ marks a conversion by molar mass, not a printed value. Ends that are not written are not given here.

How the values were obtained:
Escherichia coli 25922 = experiment: MIC against E. coli 25922 after incubation of the peptide with mouse serum, gastric juice, small intestinal juice or PBS; type: cell-based; settings: for MIC after incubation with gastric juice (GAJ), 1h: mouse gastric juice (stomach tissue + PBS pH 2.0, w/w 1:1, supernatant) mixed with peptide v/v 1:1, peptide 1.28 mM, MIC = lowest concentration killing >95% of cells; for MIC after incubation with serum, 1h / MIC after incubation with serum, 4h / MIC after incubation with serum, 8h: mouse serum mixed with peptide v/v 4:1, 1.28 mM; for Effect of the serum environment on antimicrobial activity: mouse serum, 1-8 h incubation, read-out MIC vs E. coli 25922; for MIC after incubation with small intestinal juice (SIJ), 1h: mouse small intestine contents + PBS pH 7.0 (w/w 1:9, supernatant) mixed with peptide v/v 1:1, 1.28 mM; for MIC after incubation in PBS2.0, 1h / MIC after incubation in PBS2.0, 4h / MIC after incubation in PBS2.0, 8h: phosphate-buffered saline pH 2.0, 37°C; for MIC after incubation in PBS7.0, 1h / MIC after incubation in PBS7.0, 4h / MIC after incubation in PBS7.0, 8h: phosphate-buffered saline pH 7.0, 37°C
Procedure: FIGURE 2 (a) Schematic diagram of the experimental scheme. Red and green arrows indicate the number of oral administrations and corresponding time points, respectively. (b) The experimental group design. (c) R7I MIC changes after incubation with serum, gastric juice, and small intestine fluid against Escherichia coli 25922. Minimum inhibitory concentrations (MICs, μM) were determined as the lowest peptide concentrations that killed greater than 95% of the bacterial cells. A value >64 indicates no detectable antibacterial activity at 64 μM. GAJ, gastric juice; SIJ, small intestinal juice; PBS2.0 and PBS7.0, phosphate‐buffered saline (pH = 2.0 or pH = 7.0); E. coli, Escherichia coli 25922 TEXT PRINTED IN THE PICTURE: (c) R7I + GAJ + E. coli: 1h: 2; 4h: 2; 8h: 2 | (c) R7I + SIJ + E. coli: 1h: 2; 4h: 4; 8h: 4 | (c) R7I + Serum + E. coli: 1h: 2; 4h: 2; 8h: 2 | (c) Melittin + GAJ + E. coli: 1h: >64; 4h: >64; 8h: >64 | (c) Melittin + SIJ + E. coli: 1h: >64; 4h: >64; 8h: >64 | (c) Melittin + Serum + E. coli: 1h: 4; 4h: 8; 8h: 8 | (c) R7I + PBS2.0 + E. coli: 1h: 2; 4h: 2; 8h: 2 | (c) R7I + PBS7.0 + E. coli: 1h: 2; 4h: 2; 8h: 2 | (c) Melittin + PBS2.0 + E. coli: 1h: 2; 4h: 2; 8h: 2 | (c) Melittin + PBS7.0 + E. coli: 1h: 2; 4h: 2; 8h: 2
The C57BL/6 male mice aged 6 weeks were provided by Liaoning Changsheng Biotechnology Co., Ltd., China and euthanized at 10:00 am. The serum was collected and mixed with R7I (v/v = 4:1) to give a final peptide concentration of 1.28 mM. The stomach (cut in half) and the contents of the entire small intestine of the mice were collected and placed in a sterile eppendorf tube. Sterile PBS was added to gastric tissue (w/w = 1:1, pH = 2.0) and small intestine contents (w/w = 1:9, pH = 7.0), and mixed thoroughly by shaking. The mixture was centrifuged to obtain the supernatant as gastric juice and small intestine juice. R7I was dissolved with the corresponding pH PBS. The prepared gastric and small intestine fluids were then mixed separately with R7I (v/v = 1:1) to give a final peptide concentration of 1.28 mM. Melittin was used here as a control. The peptide mixture was incubated in a 37°C incubator for 1, 4 and 8 h. Finally, the minimum inhibitory concentrations (MICs) test was performed to verify peptide activity with Escherichia coli 25922.[18]

[1] = earlier research; cited from earlier work
From the text: Importantly, compared with other anti‐proteolytic peptides containing unnatural amino acids, R7I was completely composed of natural amino acids and had dramatic resistance to a high concentration of protease hyd ...

[2] = test system: pepsin, trypsin, chymotrypsin, and proteinase K; settings: in vitro; cited from earlier work
[3] = test system: E. coli ATCC 25922 bacterial enteritis model in mice; experiment: Bacterial enteritis model: serum D-lactic acid, diamine oxidase, SIgA (ELISA); type: in vivo, C57BL/6 male mice; settings: n = 6
Procedure: C57BL/6 male mice that were 6 weeks old were provided by Liaoning Changsheng Biotechnology Co., Ltd., China. All mice (20.00 ± 2.00 g, 6 weeks old) were randomly divided into 6 groups (n = 12), and they were fed adaptively for 3 days. During the whole experiment, mice can get clean water and a laboratory standard diet ad libitum, under controlled environmental conditions (40%–60% relative humidity, 25 ± 2°C temperature; lighting cycle, 12 h/d). The standard lab diet contained 18% crude protein, 4% crude fat, 5% crude fiber, 8% ash, and 10% moisture.
(§1) The mice were divided into six groups randomly: (1) the control group (E. coli + normal saline); the administration group (E. coli + R7I) is set to three concentration gradients: (2) 20 mg/kg, (3) 30 mg/kg, and (4) 40 mg/kg of body weight; (5) the antibiotic group (E. coli + colistin sulfate), 20 mg/kg of body weight; and (6) the blank group with only normal saline (Figure 2b).
Based on the results of the pre‐experiment, we determined the appropriate concentration of the bacteria. The strain E. coli ATCC 25922 frozen at −20°C was incubated overnight in LB medium (37°C, 220r). The bacterial broth was transferred to a new LB medium at a ratio of 1:100 for 3–5 h to reach the logarithmic growth period. The bacterial precipitate was centrifuged and washed three times with saline to adjust the colony count to 2.0 × 10^9 CFU/ml.
(§2) The blank group was gavaged with 200 μl of saline, and all other groups were gavaged twice with E. coli ATCC 25922 (200 μl) once a day (d1‐2). R7I at different concentrations and colistin sulfate were given twice (12 h intervals) on the d3 and once on d4‐5 by oral administration. Correspondingly, an equal amount of saline was given to the blank and control groups in the same way. On day 6, all mice were euthanized by cervical dislocation under full anesthesia with isoflurane.
To detect the content of diamine oxidase (DAO), D‐lactic acid, and secretory immunoglobulin A (SlgA) in serum, using mouse ELISA kit instruction (Alphabio, Tianjin, China).

[4] = test system: E. coli ATCC 25922 bacterial enteritis model in mice; experiment: Bacterial enteritis model: serum biochemical indices; type: in vivo, C57BL/6 male mice; settings: other doses of R7I (30, 40 mg/kg) and colistin sulfate 20 mg/kg, oral
Procedure: as §1, §2
Serum biochemical indices of alanine aminotransferase (ALT), aspartate aminotransferase (AST), alkaline phosphatase (ALP), total bilirubin (TBIL), cholinesterase (CHE), creatinine (CREA), creatine kinase (CK), urea nitrogen (BUN), lactate dehydrogenase (LDH), total protein (TP), albumin (ALB), and globulin (GLB) were measured by the automatic biochemical analyzer (Roche, Cobus‐Mira‐Plus, Roche Diagnostic System Inc., Basel, Switzerland).

[5] = test system: E. coli ATCC 25922 bacterial enteritis model in mice; experiment: Bacterial enteritis model: antioxidant function of the liver; type: in vivo, C57BL/6 male mice; settings: oral R7I (20, 30, 40 mg/kg) or colistin sulfate 20 mg/kg; vs control group; n = 6
Procedure: as §1, §2
Total antioxidant capacity (T‐AOC), superoxide dismutase (SOD), glutathione peroxidase (GSH‐Px), malondialdehyde (MDA), and catalase (CAT) enzyme activities in the liver were determined using commercially available kits (Nanjing Jiancheng Bioengineering Institute, Nanjing, China) according to the manufacturer's instructions.

[6] = mouse gastric juice (PBS pH 2.0, w/w 1:1) mixed with peptide v/v 1:1, 1.28 mM, 37°C, 4 h, then MIC vs E. coli 25922
[7] = 37°C, then MIC vs E. coli 25922
[8] = 37°C, 4 h, then MIC vs E. coli 25922
[9] = 37°C, 8 h, then MIC vs E. coli 25922
[10] = mouse small intestine contents + PBS pH 7.0 (w/w 1:9) mixed with peptide v/v 1:1, 1.28 mM, 37°C, 8 h, then MIC vs E. coli 25922
[11] = oral R7I 20, 30, 40 mg/kg or colistin sulfate 20 mg/kg, vs control group, p < 0.05 in most treatment groups, best in 20 mg/kg R7I

Compound | MIC after incubation with gastric juice (GAJ), 4h (Escherichia coli 25922; [6]) [µM] | MIC after incubation with gastric juice (GAJ), 1h (Escherichia coli 25922; [7]) [µM] | MIC after incubation with serum, 1h (Escherichia coli 25922; [7]) [µM] | MIC after incubation with serum, 4h (Escherichia coli 25922; [8]) [µM] | MIC after incubation with serum, 8h (Escherichia coli 25922; [9]) [µM] | Effect of the serum environment on antimicrobial activity (Escherichia coli 25922; 37°C) | MIC after incubation with small intestinal juice (SIJ), 8h (Escherichia coli 25922; [10]) [µM] | MIC after incubation with small intestinal juice (SIJ), 1h (Escherichia coli 25922; [7]) [µM] | MIC after incubation in PBS2.0, 1h (Escherichia coli 25922; then MIC vs E. coli 25922) [µM] | MIC after incubation in PBS2.0, 4h (Escherichia coli 25922; 4 h, then MIC vs E. coli 25922) [µM] | MIC after incubation in PBS2.0, 8h (Escherichia coli 25922; 8 h, then MIC vs E. coli 25922) [µM] | MIC after incubation in PBS7.0, 1h (Escherichia coli 25922; then MIC vs E. coli 25922) [µM] | MIC after incubation in PBS7.0, 4h (Escherichia coli 25922; 4 h, then MIC vs E. coli 25922) [µM] | MIC after incubation in PBS7.0, 8h (Escherichia coli 25922; 8 h, then MIC vs E. coli 25922) [µM] | also measured
IRPIIRPIIRPIIRPIIRPIIRPIIRPI-NH2 [R7I] | 2 | 2 | 2 | 2 | 2 | no negative effect | 4 | 2 | 2 | 2 | 2 | 2 | 2 | 2 | Cytotoxicity [1]: low cytotoxicity; Resistance to pepsin, trypsin, chymotrypsin, and proteinase K [2]: excellent resistance
colistin sulfate | – | – | – | – | – | – | – | – | – | – | – | – | – | – | Serum D-lactic acid (DLA) level [3, 11]: significantly decreased; Serum diamine oxidase (DAO) level [3, 11]: significantly decreased; Serum secreted immunoglobulin A (SlgA) level vs control group ([3]; partial dose concentrations, oral): raise secreted immunoglobulin A (SlgA) levels compared to the control group, without statistical significance; Serum CREA level [4]: little effect (or even an increasing trend); Serum LDH level [4]: little effect (or even an increasing trend); Serum AST level ([4]; p < 0.05): decrease; Serum TBIL level ([4]; p < 0.05): decrease; Serum ALT level ([4]; p > 0.05): decrease; MDA levels in the liver [5]: significantly dropped
CC[C@H](C)[C@H](NC(=O)CN)C(=O)NCC(=O)N[C@@H](C)C(=O)N[C@H](C(=O)N[C@@H](CC(C)C)C(=O)N[C@@H](CCCCN)C(=O)N[C@H](C(=O)N[C@@H](CC(C)C)C(=O)N[C@H](C(=O)N[C@H](C(=O)NCC(=O)N[C@@H](CC(C)C)C(=O)N1CCC[C@H]1C(=O)N[C@@H](C)C(=O)N[C@@H](CC(C)C)C(=O)N[C@H](C(=O)N[C@@H](CO)C(=O)N[C@@H](Cc1c[nH]c2ccccc12)C(=O)N[C@H](C(=O)N[C@@H](CCCCN)C(=O)N[C@@H](CCCNC(=N)N)C(=O)N[C@@H](CCCCN)C(=O)N[C@@H](CCCNC(=N)N)C(=O)N[C@@H](CCC(N)=O)C(=O)N[C@@H](CCC(N)=O)C(N)=O)[C@@H](C)CC)[C@@H](C)CC)[C@@H](C)O)[C@@H](C)O)C(C)C)C(C)C [Melittin] | > 64 | > 64 | 4 | 8 | 8 | slightly compromised | > 64 | > 64 | 2 (≈ 5.69 µg/mL) | 2 (≈ 5.69 µg/mL) | 2 (≈ 5.69 µg/mL) | 2 (≈ 5.69 µg/mL) | 2 (≈ 5.69 µg/mL) | 2 (≈ 5.69 µg/mL) | MIC after incubation with gastric juice (GAJ), 8h (Escherichia coli 25922; mouse gastric juice (PBS pH 2.0, w/w 1:1) mixed with peptide v/v 1:1, 1.28 mM, 37°C, 8 h, then MIC vs E. coli 25922): > 64 µM; MIC after incubation with small intestinal juice (SIJ), 4h (Escherichia coli 25922; mouse small intestine contents + PBS pH 7.0 (w/w 1:9) mixed with peptide v/v 1:1, 1.28 mM, 37°C, 4 h, then MIC vs E. coli 25922): > 64 µM; Activity after incubation with small intestinal fluid for 1 min (Escherichia coli 25922; small intestinal fluid, 1 min, unused data): inactivated
